Values quoted from earlier work in US20140342380A1, “VERIFYING THE SOURCE OF BIOLOGICAL SAMPLES; METHOD, COMPOSITION AND KIT THEREFOR” (priority 2011, published 2014).
Where two headings read alike, the source gives them in different places.

Key:
[1] = cited from earlier work
[2] = cited from earlier work; remark: listed apart in the source

In the case of CCCCCCCCCCCCOC(=O)CCSCCC(=O)OCCCCCCCCCCCC [Dilauryl thiodipropionate (DLTDP), Dilauryl thiodipropionate], the “metabolite(s) / form excreted in urine after ingestion” value ([1]; Table 1 note, species not stated) is given as “Dilauryl thiodipropionate (DLTDP), Ingested DLTDP was excreted in the urine as thiodipropionic”.

For O=C(OC[C@H]1O[C@@H](OC(=O)c2cc(O)c(O)c(OC(=O)c3cc(O)c(O)c(O)c3)c2)[C@H](OC(=O)c2cc(O)c(O)c(OC(=O)c3cc(O)c(O)c(O)c3)c2)[C@@H](OC(=O)c2cc(O)c(O)c(OC(=O)c3cc(O)c(O)c(O)c3)c2)[C@@H]1OC(=O)c1cc(O)c(O)c(OC(=O)c2cc(O)c(O)c(O)c2)c1)c1cc(O)c(O)c(OC(=O)c2cc(O)c(O)c(O)c2)c1 [Tannic acid], the “metabolite(s) found after ingestion” value ([2]; Table 1 note, cited study in rat) is listed as “Tannic acid: metabolized to 4-0-Methylgallic acid (4-OMGA), pyrogallol (PY), and resorcinol”.

In the case of C=CCc1ccc(O)c(OC)c1 [eugenol], the “metabolite(s) found after ingestion” value ([2]; rat, in vivo) is given as “eugenol clove leaf oil metabolized to Glucuronide and sulfate conjugates were identified in urine”.

In the case of inulin, the “renal handling / detection in urine after consumption” value ([1]; general statement) is listed as “readily passively filtered by the kidney, e.g., detected in the urine after consumption”.
